Where “and” joins values, the source holds several entries; their conditions need not be identical. Equal values may be shown once. Inconclusive results and toxic doses are left out.
Tested on: P388 leukemia ip, CD2F1 mice, survival T/C
Assay: NCI In Vivo Anticancer Drug Screen. Data for tumor model P388 Leukemia (intraperitoneal) in CD2F1 (CDF1) mice
Conditions: endpoint: median survival time, higher = longer survival
Method in brief: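 Mice carrying the transplanted tumor received test compound or vehicle. Survival was recorded in each group, and the value is the treated-group measurement divided by that of the vehicle-treated control group.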

[1] = dose: 60.0 mg/kg/injection, schedule: Q01DX005 (ip), vehicle: saline with Tween-80
[2] = dose: 120.0 mg/kg/injection, schedule: Q01DX005 (ip), vehicle: saline with Tween-80
[3] = dose: 240.0 mg/kg/injection, schedule: Q01DX005 (ip), vehicle: saline with Tween-80
[4] = dose: 25.0 mg/kg/injection, schedule: Q01DX005 (ip), vehicle: saline with Tween-80
[5] = dose: 50.0 mg/kg/injection, schedule: Q01DX005 (ip), vehicle: Klucel (hydroxypropylcellulose) (HPC)
[6] = dose: 100.0 mg/kg/injection, schedule: Q01DX005 (ip), vehicle: Klucel (hydroxypropylcellulose) (HPC)
[7] = dose: 200.0 mg/kg/injection, schedule: Q01DX005 (ip), vehicle: Klucel (hydroxypropylcellulose) (HPC)
[8] = dose: 25.0 mg/kg/injection, schedule: Q01DX009 (ip), vehicle: saline with Tween-80
[9] = dose: 60.0 mg/kg/injection, schedule: Q01DX005 (ip), vehicle: Klucel (hydroxypropylcellulose) (HPC)
[10] = dose: 120.0 mg/kg/injection, schedule: Q01DX005 (ip), vehicle: Klucel (hydroxypropylcellulose) (HPC)
[11] = dose: 240.0 mg/kg/injection, schedule: Q01DX005 (ip), vehicle: Klucel (hydroxypropylcellulose) (HPC)
[12] = dose: 50.0 mg/kg/injection, schedule: Q01DX009 (ip), vehicle: saline
[13] = dose: 100.0 mg/kg/injection, schedule: Q01DX009 (ip), vehicle: saline
[14] = dose: 200.0 mg/kg/injection, schedule: Q01DX009 (ip), vehicle: saline
[15] = dose: 100.0 mg/kg/injection, schedule: Q01DX001 (ip), vehicle: Klucel (hydroxypropylcellulose) (HPC)

Q: For `c1ccc(OCc2cn[nH]n2)cc1`, which T/C [1] is on record?
A: 100 % of control

Q: What about the T/C [2] of the same compound?
A: 103 % of control

Q: What about the T/C [3] of the same compound?
A: 100 % of control

Q: How did the T/C (dose: 6.25 mg/kg/injection, schedule: Q01DX005 (ip), vehicle: saline with Tween-80) turn out when `Cc1ccc(S(=O)(=O)Nc2ccc(-c3cc4cc(Cl)ccc4o3)cc2)cc1` was run?
A: 92 % of control

Q: And the T/C (dose: 12.5 mg/kg/injection, schedule: Q01DX005 (ip), vehicle: saline with Tween-80)?
A: 91 % of control

Q: What about the T/C [4] of the same compound?
A: 87 % of control

Q: How did the T/C [4] turn out when `CCOC(=O)Nc1cc2c(c(N)n1)N=C(c1ccccc1)CO2` was run?
A: 102 % of control and 112 % of control

Q: How did the T/C [5] turn out when `O=S12(OC(C(F)(F)F)(C(F)(F)F)c3ccccc31)OC(C(F)(F)F)(C(F)(F)F)c1ccccc12` was run?
A: 111 % of control

Q: What about the T/C [6] of the same compound?
A: 103 % of control

Q: What about the T/C [7] of the same compound?
A: 100 % of control

Q: For `O=C1C2C3C=CC(C2C(=O)N1CN1CCOCC1)C1C2C(=O)N(CN4CCOCC4)C(=O)C2C31` (stereo not drawn), which T/C [8] is on record?
A: 120 % of control

Q: What does the source list for `CN1CCN(c2ccc([N+](=O)[O-])c3no[n+]([O-])c23)CC1`?
A: T/C (dose: 2.5 mg/kg/injection, schedule: Q01DX009 (ip), vehicle: saline): 116 % of control; T/C (dose: 20.0 mg/kg/injection, schedule: Q01DX009 (ip), vehicle: saline): 152 % of control

Q: With `COc1cc(NC(C)CCCN)c2ncccc2c1Sc1ccc(Cl)cc1` (stereo not drawn) as the compound, how does the T/C (dose: 3.13 mg/kg/injection, schedule: Q01DX009 (ip), vehicle: saline with Tween-80) read?
A: 89 % of control

Q: And the T/C (dose: 6.25 mg/kg/injection, schedule: Q01DX009 (ip), vehicle: saline with Tween-80)?
A: 94 % of control

Q: Which results are given for `OCC1CC=CCC1` (stereo not drawn)?
A: T/C (dose: 100.0 mg/kg/injection, schedule: Q04DX003 (ip), vehicle: saline with Tween-80): 90 % of control; T/C (dose: 200.0 mg/kg/injection, schedule: Q04DX003 (ip), vehicle: saline with Tween-80): 100 % of control; T/C (dose: 400.0 mg/kg/injection, schedule: Q04DX003 (ip), vehicle: saline with Tween-80): 90 % of control

Q: Which results are given for `CCOC(=O)c1cnc2c(OC)cccc2c1Nc1ccc2c(c1)OCO2`?
A: T/C [9]: 101 % of control; T/C [10]: 97 % of control; T/C [11]: 96 % of control

Q: Which results are given for `OCC1CC(c2ccccc2)=NO1` (stereo not drawn)?
A: T/C [9]: 101 % of control; T/C [10]: 100 % of control; T/C [11]: 101 % of control

Q: How did the T/C (dose: 110.0 mg/kg/injection, schedule: Q01DX001 (ip), vehicle: Klucel (hydroxypropylcellulose) (HPC)) turn out when `COc1ccc2c(c1)c(OC)c(CC(O)C(C)(C)O)c(=O)n2C` (stereo not drawn) was run?
A: 96 % of control

Q: And the T/C (dose: 220.0 mg/kg/injection, schedule: Q01DX001 (ip), vehicle: Klucel (hydroxypropylcellulose) (HPC))?
A: 106 % of control

Q: And the T/C (dose: 440.0 mg/kg/injection, schedule: Q01DX001 (ip), vehicle: Klucel (hydroxypropylcellulose) (HPC))?
A: 110 % of control

Q: Which T/C (dose: 100.0 mg/kg/injection, schedule: Q04DX003 (ip), vehicle: saline) does the source give for `CCCCCCCCCCCCS(=O)(=O)CCC(=O)c1ccco1` here?
A: 99 % of control

Q: What about the T/C (dose: 200.0 mg/kg/injection, schedule: Q04DX003 (ip), vehicle: saline) of the same compound?
A: 99 % of control

Q: And the T/C (dose: 400.0 mg/kg/injection, schedule: Q04DX003 (ip), vehicle: saline)?
A: 97 % of control

Q: What does the source list for `CCO/C(C)=N/NC(=O)c1n[nH]c2ccccc12`?
A: T/C (dose: 50.0 mg/kg/injection, schedule: Q01DX005 (ip), vehicle: saline with Tween-80): 92 % of control; T/C (dose: 100.0 mg/kg/injection, schedule: Q01DX005 (ip), vehicle: saline with Tween-80): 91 % of control; T/C (dose: 200.0 mg/kg/injection, schedule: Q01DX005 (ip), vehicle: saline with Tween-80): 90 % of control

Q: How did the T/C (dose: 100.0 mg/kg/injection, schedule: Q04DX002 (ip), vehicle: saline) turn out when `CCc1ccc(C2(C)C(=O)c3ccccc3C2=O)cc1` was run?
A: 101 % of control

Q: What about the T/C (dose: 200.0 mg/kg/injection, schedule: Q04DX002 (ip), vehicle: saline) of the same compound?
A: 100 % of control

Q: And the T/C (dose: 400.0 mg/kg/injection, schedule: Q04DX002 (ip), vehicle: saline)?
A: 104 % of control

Q: What does the source list for `CCOC(=O)OCC1OC(OC(C)=O)C(OC(C)=O)C(OC(=O)OCC)C1OC(=O)OCC` (stereo not drawn)?
A: T/C (dose: 12.5 mg/kg/injection, schedule: Q01DX009 (ip), vehicle: water): 95 % of control; T/C (dose: 25.0 mg/kg/injection, schedule: Q01DX009 (ip), vehicle: water): 99 % of control; T/C (dose: 50.0 mg/kg/injection, schedule: Q01DX009 (ip), vehicle: water): 91 % of control; T/C (dose: 100.0 mg/kg/injection, schedule: Q01DX009 (ip), vehicle: water): 99 % of control; T/C (dose: 200.0 mg/kg/injection, schedule: Q01DX009 (ip), vehicle: water): 90 % of control

Q: `O=C1OCC/C1=C/O/C=C1\CCOC1=O` was tested. Which T/C [1] did it give?
A: 106 % of control

Q: What about the T/C [2] of the same compound?
A: 119 % of control

Q: What does the source list for `O=C(N/N=C/c1ccccn1)c1ccccc1[O-].O=C(N/N=C/c1ccccn1)c1ccccc1[O-].[Co+2]`?
A: T/C [5]: 113 % of control; T/C [6]: 117 % of control

Q: Which results are given for `O=C(O)c1c[nH]c2cc(OCCOc3ccccc3)ccc2c1=O`?
A: T/C [12]: 107 % of control; T/C [13]: 107 % of control; T/C [14]: 100 % of control

Q: For `O=C(S)CC1(O)CCCCC12OC2c1ccccc1` (stereo not drawn), which T/C [15] is on record?
A: 99 % of control

Q: What about the T/C (dose: 200.0 mg/kg/injection, schedule: Q01DX001 (ip), vehicle: Klucel (hydroxypropylcellulose) (HPC)) of the same compound?
A: 104 % of control

Q: And the T/C (dose: 400.0 mg/kg/injection, schedule: Q01DX001 (ip), vehicle: Klucel (hydroxypropylcellulose) (HPC))?
A: 103 % of control

Q: With `C1CC[N+]2(CC1)CCCCC2` as the compound, how does the T/C (dose: 6.25 mg/kg/injection, schedule: Q01DX009 (ip), vehicle: saline) read?
A: 100 % of control

Q: What about the T/C (dose: 12.5 mg/kg/injection, schedule: Q01DX009 (ip), vehicle: saline) of the same compound?
A: 100 % of control

Q: What about the T/C (dose: 25.0 mg/kg/injection, schedule: Q01DX009 (ip), vehicle: saline) of the same compound?
A: 108 % of control

Q: What about the T/C [12] of the same compound?
A: 98 % of control

Q: How did the T/C [1] turn out when `CS(=O)(=O)N1COC(=O)[C@@H]1c1ccccc1` was run?
A: 100 % of control

Q: And the T/C [2]?
A: 101 % of control

Q: What about the T/C [3] of the same compound?
A: 101 % of control

Q: For `CC(=O)Nc1ccc(S(=O)(=O)Nc2cccc3[nH]c(=O)oc23)cc1`, which T/C (dose: 50.0 mg/kg/injection, schedule: Q04DX002 (ip), vehicle: Klucel (hydroxypropylcellulose) (HPC)) is on record?
A: 98 % of control

Q: And the T/C (dose: 100.0 mg/kg/injection, schedule: Q04DX002 (ip), vehicle: Klucel (hydroxypropylcellulose) (HPC))?
A: 95 % of control

Q: And the T/C (dose: 200.0 mg/kg/injection, schedule: Q04DX002 (ip), vehicle: Klucel (hydroxypropylcellulose) (HPC))?
A: 92 % of control

Q: What does the source list for `Cc1ccc(Oc2nc(=O)c3c(o2)CC(C)(C)C3)cc1`?
A: T/C (dose: 12.5 mg/kg/injection, schedule: Q01DX009 (ip), vehicle: saline with Tween-80): 106 % of control; T/C [8]: 106 % of control and 112 % of control; T/C (dose: 50.0 mg/kg/injection, schedule: Q01DX009 (ip), vehicle: saline with Tween-80): 103 % of control and 106 % of control and 114 % of control; T/C (dose: 100.0 mg/kg/injection, schedule: Q01DX009 (ip), vehicle: saline with Tween-80): 120 % of control and 96 % of control

Q: Which results are given for `CC1(C)OC2CC(=O)OCC23C1CC(O)C1(C)C3CCC2(C)C(c3ccoc3)OC(=O)C3OC321` (stereo not drawn)?
A: T/C (dose: 0.75 mg/kg/injection, schedule: Q01DX009 (ip), vehicle: saline + alcohol): 99 % of control; T/C (dose: 1.5 mg/kg/injection, schedule: Q01DX009 (ip), vehicle: saline + alcohol): 99 % of control; T/C (dose: 3.0 mg/kg/injection, schedule: Q01DX009 (ip), vehicle: saline + alcohol): 97 % of control; T/C (dose: 6.0 mg/kg/injection, schedule: Q01DX009 (ip), vehicle: saline + alcohol): 97 % of control; T/C (dose: 100.0 mg/kg/injection, schedule: Q04DX002 (ip), vehicle: saline with Tween-80): 103 % of control and 98 % of control; T/C (dose: 200.0 mg/kg/injection, schedule: Q04DX002 (ip), vehicle: saline with Tween-80): 101 % of control and 100 % of control; T/C (dose: 400.0 mg/kg/injection, schedule: Q04DX002 (ip), vehicle: saline with Tween-80): 91 % of control and 92 % of control

Q: What does the source list for `CC1=C(CCC(=O)O)c2cc3nc(cc4[nH]c(cc5[nH]c(cc1n2)c(C)c5C1CC1C(=O)O)c(C)c4C1CC1C(=O)O)C(C)=C3CCC(=O)O` (stereo not drawn)?
A: T/C [5]: 106 % of control; T/C [6]: 101 % of control; T/C [7]: 95 % of control

Q: How did the T/C [12] turn out when `Clc1ccc(-c2noc(CN3CCOCC3)n2)cc1` was run?
A: 102 % of control

Q: And the T/C [13]?
A: 105 % of control

Q: And the T/C [14]?
A: 109 % of control

Q: How did the T/C (dose: 25.0 mg/kg/injection, schedule: Q01DX005 (ip), vehicle: Klucel (hydroxypropylcellulose) (HPC)) turn out when `CC1(C)[C@H](C(=O)O)N2C(=O)[C@@H](NC(=O)C(c3ccccc3)c3ccccc3)[C@H]2S1=O` (stereo partly drawn) was run?
A: 101 % of control

Q: And the T/C [5]?
A: 99 % of control

Q: And the T/C [6]?
A: 101 % of control

Q: With `O=C(Nc1ccc(N=C=S)cc1)c1cc(Br)cc(Br)c1O` as the compound, how does the T/C (dose: 50.0 mg/kg/injection, schedule: Q01DX001 (ip), vehicle: Klucel (hydroxypropylcellulose) (HPC)) read?
A: 101 % of control

Q: What about the T/C [15] of the same compound?
A: 99 % of control

Reference: PubChem BioAssay AID330 (DTP/NCI, 2004)
